According to patent US4086239A, “Thiazole bis-phosphates and phosphonates, intermediates, and insecticidal compositions and methods” (priority 1977, dated 1978):

Tests used:
Format in all cases: in vivo
[1] = tested on: Housefly [Musca domestica (L.)]; test: Housefly insecticide evaluation; details: per 25 female houseflies; mortality after 48 hours
Experimental: A. Housefly [Musca domestica (L.) ]
The test compound is diluted in acetone and an aliquot is pipetted onto the bottom of a 55 × 15 mm aluminum dish. To insure even spreading on the bottom of the dish, 1 ml of acetone containing 0.02% peanut oil is added. After all the solvent has evaporated, the dish is placed in a circular cardboard cage containing 25 1-day-old female houseflies. The cage is covered on the bottom with cellophane and the top with tulle netting, and contains a sugar-water saturated cotton plug for maintenance of the flies. Mortality is recorded after 48 hours. The primary screening level for this test is 100 micrograms of the test compound per 25 female houseflies.
(§1) For a particular insect, each compound was initially tested at the primary screening level. For the two-spotted mite, the testing stopped at this point. Those compounds showing less than 50% kill are represented in the table by the primary screening level preceded by a "greater than" sign. For those showing more than 50% kill, a "less than" sign is used. For all other insects those compounds showing greater than 50% kill at the primary screening level were then tested at successively lower levels, until the level was found at which approximately 50% kill was achieved. This level is listed as the LD50 (50% lethal dose) value in Table III. For those compounds showing approximately 50% kill at the primary screening level, the primary screening level itself is listed as the LD50.
(§2) In cases where this level was found, the level is reported as the LD50. When the level of 50% kill was not found, the number listed is the highest concentration tested, whether primary screen or higher, preceded by a "greater than" sign to indicate that a higher level than reported must be used to achieve 50% kill.

[2] = tested on: German Cockroach [Blatella germanica (Linne)]; test: German cockroach spray insecticide evaluation; details: % by weight in acetone-water spray; nymphs; mortality after 7 days
Experimental: B. German Cockroach [Blatella germanica (Linne)]
The test compound is diluted in a 50-50 acetone-water solution. Two milliliters of the solution are sprayed through a DeVilbiss type EGA hand spray gun into a circular cardboard cage contaning 10 1-month-old German Cockroach nymphs. The test cage is covered on the bottom with cellophane and the top with tulle netting. Percent mortality is recorded after 7 days. The primary screening level for this test is 0.1% by weight of the test compound in the acetone-water solution.
as §1, §2

[3] = tested on: Lygus bug [Lygus hesperus (Knight)]; test: Lygus bug spray insecticide evaluation; details: % by weight in acetone-water spray; adults; mortality after 48 hours
Experimental: C. Lygus bus [Lygus hesperus (Knight)]
The test compound is dissolved in a 50-50 acetone-water solution. Two cubic centimeters of the solution are sprayed through a DeVilbiss-type EGA hand spray gun into a circular cardboard cage covered on the bottom with cellophane and the top with tulle netting, containing one string bean pod and 10 adult lygus bugs. Percent mortality is recorded after 48 hours. The primary screening level for this test is 0.5% by weight of the test compound in the acetone-water solution.
as §1, §2

[4] = tested on: Black Bean Aphid [Aphis fabae (Scop.)]; test: Direct spray assay on black bean aphid; details: % by weight in acetone-water, mortality after 3 days
Experimental: D. Direct Spray Assay on Black Bean Aphid [Aphis fabae (Scop.)]
A nasturtium plant (Tropaeolum sp.), approximately 5 cm tall, is transplanted into sandy loam soil in a 3-inch clay pot and infested with 25-50 black bean aphids of mixed ages. Twenty-four hours later the plant is sprayed, to the point of runoff, with a 50-50 acetone-water solution of the test chemical. The treated plant is held in the greenhouse and mortality is recorded after 3 days. The primary screening level for this test is 0.05% by weight of the test compound in the acetone-water solution.
as §1, §2

[5] = tested on: Green Peach Aphid [Myzus persicae (Sulzer)]; test: Direct spray assay on green peach aphid; details: % by weight in acetone-water, mortality after 3 days
Experimental: E. Direct Spray Assay on Green Peach Aphid [Myzus persicae (Sulzer)]
A radish plant (Rhaphanus sativus), approximately 2 cm tall, is transplanted into sandy loam soil in a 3-inch clay pot and infested with 25-50 green peach aphids of mixed ages. Twenty-four hours later the plant is sprayed, to the point of runoff, with a 50-50 acetone-water solution of the test compound. The treated plant is held in a greenhouse and mortality is recorded after 3 days. The primary screening level for this test is 0.05% by weight of the test compound in the acetone-water solution.
as §1, §2

[6] = tested on: Black Bean Aphid [Aphis fabae (Scop.)]; test: Systemic assay on black bean aphid; details: ppm by weight in soil, mortality after seven days
Experimental: F. Systemic Assay on Black Bean Aphid [Aphis fabae (Scop.)]
The test chemical is diluted in acetone and an aliquot is thoroughly mixed into 500 grams of dry, sandy loam soil. The treated soil is placed in a pint ice cream carton and a nasturtium plant (Tropaeolum sp.) approximately 5 cm tall is transplanted into the carton. The plant is then infested with approximately 25 black bean aphids of mixed ages and placed in the greenhouse. Seven days later mortality is recorded. The primary screening level for this test is 10 ppm by weight of the test compound in the soil.
as §1, §2

[7] = tested on: Salt-marsh Caterpillar [Estigmene acrea (Druryl)]; test: Salt-marsh caterpillar leaf dip test; details: % by weight in solution, larvae, 48 hours plus 5 days if survivors
Experimental: G. Salt-marsh Caterpillar [Estigmene acrea (Druryl)]
(§3) A test solution is prepared by dissolving the test compound in a 50-50 acetone-water solution. A section of a curly dock (Rumex crispus) leaf, aproximately 2.5 centimeters wide and 4 centimeters long, is immersed in the test solution for 2-3 seconds, then placed on a wire screen to dry. The dried leaf is placed in a petri dish containing a moistened piece of filter paper, and infested with 5 second-instar salt-marsh caterpillar larvae. Mortality of the larvae is recorded 48 hours later. If surviving larvae are still present, a piece of synthetic media is added to the dish and the larvae are observed for an additional 5 days in order to detect delayed effects of the test compound. The primary screening level for this test is 0.05% by weight of the test compound in the solution.
as §1, §2

[8] = tested on: Cabbage Looper [Trichoplusia ni (Hubner)]; test: Cabbage looper leaf dip test; details: % by weight in solution, larvae, 48 hours plus 5 days if survivors
Experimental: as §3
H. Cabbage Looper [Trichoplusia ni (Hubner)]
The procedure for cabbage looper larvae is the same as that used for salt-marsh caterpillar larvae, except that a cotyledon of hyzini squash (Calabacita abobrinha) of approximately the same size as the curly dock leaf section is used in place of the latter. The primary screening level for this test is 0.1% by weight of the test compound in the solution.
as §1, §2

[9] = tested on: Tobacco Budworm [Heliotis virescens (F.)]; test: Tobacco budworm leaf dip test; details: % by weight in solution, larvae, 48 hours plus 5 days if survivors
Experimental: as §3
I. Tobacco Budworm [Heliotis virescens (F.)]
Larvae of the tobacco budworm are used in this test in a procedure identical to that used for salt-marsh caterpillar larvae, except that a Romaine lettace (Latua sativa) leaf section of approximately the same size as the curly dock leaf section is used in place of the latter. The primary screening level for this test is 0.1% by weight of the test compound in the solution.
as §1
In cases where this level was found, the level is reported as the LD50. […]

[10] = tested on: Two-Spotted Mite [Tetranychus urticae (Koch)]; test: Two-spotted mite plant dip test; details: tested at primary screening level 0.05% only, < means more than 50% kill, > less than 50% kill, 7 days
Experimental: J. Two-Spotted Mite [Tetranychus urticae (Koch)]
A pinto bean plant (Phaseolus sp.), approximately 10 cm tall is transplanted into sandy loam soil in a 3-inch clay pot and infested with two-spotted mites of mixed ages and sexes. Twenty-four hours later the infested plants are inverted and dipped for 2-3 seconds in a 50-50 acetone-water solution of the test compound. The treated plant is held in a greenhouse for 7 days. Mortality is then determined for both the adult mites and the nynmphs hatching from eggs which were on the plants at the time of treatment. The primary screening level for this test is 0.05% by weight of the test compound in the acetone-water solution.
as §1

[11] = tested on: Southern House Mosquito [Culex pipiens quinquefasciatus (Say)]; test: Southern house mosquito larvae test; details: ppm by weight in aqueous solution, third-instar larvae, mortality after 48 hours
Experimental: K. Southern House Mosquito [Culex pipiens quinquefasciatus (Say)]
Insecticidal activity is determined using third-instar larvae of the mosquito (Culex pipiens quinquefasciatus). Ten larvae are placed in a 6-ounce, number 67 Dixie wax paper cup containing 100 milliliters of an aqueous solution of the test chemical. The treated larvae are stored at 70° F, and 48 hours later the mortality is recorded. The primary screening level for this test is 1 ppm by weight of the test compound in the solution.
as §1, §2

| Structure (SMILES) | Approximate LD50, HF (housefly) [1] [µg] | Approximate LD50, GR (German cockroach) [2] | Approximate LD50, LB (Lygus bug) [3] | Approximate LD50, BBA (black bean aphid) [4] | Approximate LD50, GPA (green peach aphid) [5] | Approximate LD50, BAS (bean aphid systemic) [6] [ppm] | Approximate LD50, SMC (salt-marsh caterpillar) [7] | Approximate LD50, CL (cabbage looper) [8] | Approximate LD50, TBW (tobacco budworm) [9] | Approximate LD50, 2SM (two-spotted mite) (2) eggs [10] | Approximate LD50, 2SM (two-spotted mite) (1) post-embryonic [10] | LC50 ([11]; read-out: Approximate LD50, MOS (Southern house mosquito)) [µg/mL] | Approximate LD50, MOS (Southern house mosquito) [11] |
| --- | --- | --- | --- | --- | --- | --- | --- | --- | --- | --- | --- | --- | --- |
| COP(=S)(OC)SCC(=O)Nc1csc(NC(=O)CSP(=S)(OC)OC)n1 [Compound 2, 2,4-Bis(O,O -dimethylphosphorodithioylacetamide)thiazole] | > 100 | > .1% | > .05% | .002% | .03% | > 10 | > .05% | > .1% | > .1% | > .05% | < .05% | > 1 | – |
| COP(=S)(OC)SCC(=O)Nc1nc(NC(=O)CSP(=S)(OC)OC)c(-c2ccccc2)s1 [Compound 9] | > 100 | – | – | .2% | .15% | – | > .05% | > .5% | – | < .05% | > .05% | – | > 1.0 ppm |
| CCOP(=O)(OCC)SCC(=O)Nc1csc(NC(=O)CSP(=O)(OCC)OCC)n1 [Compound 8] | > 100 | > .1% | > .05% | .001% | .03% | > 10 | > .05% | > .1% | > .1% | < .05% | < .05% | – | > 1.0 ppm |
| CCOP(=S)(OCC)SCC(=O)Nc1csc(NC(=O)CSP(=S)(OCC)OCC)n1 [Compound 1] | > 100 | > .1% | > .05% | .05% | – | > 10 | > .05% | > .1% | > .1% | < .05% | < .05% | – | .8 ppm |
